Assays:
[1] = biological target: sigma receptor σ1 (Homo sapiens, UniProt Q99720); assay: Off-target interaction determined by the PDSP; type: binding; settings: read-out: Off-target, receptor (h, unless noted) (Ki, μM): σ1
[2] = system: wild-type C57BL/6J mice; assay: Hypothermia (Tb by telemetry) after ip dosing; type: in vivo, mouse; settings: average from dosing to 60 min, mean±SD
Protocol: (§1) Compounds were dosed ip. Tb and activity were measured by telemetry and the averages from dosing to 60 min were calculated. […] Data are for the highest dose used and are mean±SD from 3 to 22 mice/group (usually 5-7). P values are unpaired t-Test vs vehicle-treated controls assayed simultaneously. Vehicle data are mean±SD from all (n=83) vehicle treated mice.

[3] = biological target: sigma receptor σ2 (UniProt Q5BJF2); assay: Off-target interaction determined by the PDSP; type: binding, human; settings: read-out: Off-target, receptor (h, unless noted) (Ki, μM): σ2
[4] = biological target: T1, mA1AR (Mus musculus, UniProt Q60612); assay: Adenosine receptor binding, mA1AR; settings: for Ki: (m), read-out: A1AR % inhibition or Ki (converted)
T1 sequence (Q60612 1-326): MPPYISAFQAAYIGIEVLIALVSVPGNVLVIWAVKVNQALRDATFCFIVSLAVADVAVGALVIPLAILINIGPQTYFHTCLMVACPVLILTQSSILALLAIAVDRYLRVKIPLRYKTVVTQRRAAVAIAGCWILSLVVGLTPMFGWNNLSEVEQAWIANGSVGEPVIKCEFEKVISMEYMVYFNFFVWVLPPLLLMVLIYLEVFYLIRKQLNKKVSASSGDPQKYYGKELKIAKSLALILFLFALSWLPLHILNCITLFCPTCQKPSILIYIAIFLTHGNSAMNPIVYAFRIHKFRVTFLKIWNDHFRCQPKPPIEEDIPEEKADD

[5] = biological target: T2, hA1AR (Homo sapiens, UniProt P30542); assay: Radioligand binding in membranes of CHO cells expressing hA1AR, [3H]N6-R-phenylisopropyladenosine; settings: (h); Ki; read-out: A1AR % inhibition or Ki
T2 construct: expressed in transfected cells; host or cells: CHO
T2 sequence (P30542 1-326): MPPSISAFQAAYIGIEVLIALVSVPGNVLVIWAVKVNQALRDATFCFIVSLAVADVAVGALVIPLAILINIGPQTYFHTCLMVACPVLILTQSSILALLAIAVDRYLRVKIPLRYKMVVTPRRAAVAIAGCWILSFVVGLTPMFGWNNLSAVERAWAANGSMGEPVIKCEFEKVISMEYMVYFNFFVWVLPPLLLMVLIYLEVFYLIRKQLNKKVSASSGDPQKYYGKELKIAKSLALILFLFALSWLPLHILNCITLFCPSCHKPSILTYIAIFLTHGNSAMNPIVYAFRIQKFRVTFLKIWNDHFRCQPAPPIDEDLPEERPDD

[6] = biological target: T3, hA2AAR (Homo sapiens, UniProt P29274); assay: Radioligand binding in membranes of HEK293 cells expressing hA2AAR; settings: read-out: A2AAR % inhibition
T3 construct: expressed in transfected cells; host or cells: HEK293
T3 sequence (P29274 whole entry): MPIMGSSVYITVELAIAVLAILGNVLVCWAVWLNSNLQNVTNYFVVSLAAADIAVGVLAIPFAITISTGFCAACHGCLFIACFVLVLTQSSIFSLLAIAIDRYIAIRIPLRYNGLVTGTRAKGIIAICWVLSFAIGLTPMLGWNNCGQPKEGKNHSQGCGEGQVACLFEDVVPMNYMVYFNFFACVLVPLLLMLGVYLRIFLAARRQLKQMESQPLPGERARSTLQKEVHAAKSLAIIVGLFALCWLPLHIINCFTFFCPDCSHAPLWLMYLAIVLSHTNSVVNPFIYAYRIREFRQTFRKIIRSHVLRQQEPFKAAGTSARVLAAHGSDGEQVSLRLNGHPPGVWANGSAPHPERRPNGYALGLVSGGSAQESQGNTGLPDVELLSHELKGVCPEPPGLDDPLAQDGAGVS

[7] = system: wild-type C57BL/6J mice; assay: Locomotor activity by telemetry after ip dosing; type: in vivo, mouse; settings: average from dosing to 60 min, mean±SD
Protocol: as §1

[8] = biological target: T4, mA3AR (Mus musculus, UniProt Q61618); assay: Adenosine receptor binding, mA3AR; settings: (m); Ki; read-out: A3AR % inhibition or Ki (converted)
T4 sequence (Q61618 1-319): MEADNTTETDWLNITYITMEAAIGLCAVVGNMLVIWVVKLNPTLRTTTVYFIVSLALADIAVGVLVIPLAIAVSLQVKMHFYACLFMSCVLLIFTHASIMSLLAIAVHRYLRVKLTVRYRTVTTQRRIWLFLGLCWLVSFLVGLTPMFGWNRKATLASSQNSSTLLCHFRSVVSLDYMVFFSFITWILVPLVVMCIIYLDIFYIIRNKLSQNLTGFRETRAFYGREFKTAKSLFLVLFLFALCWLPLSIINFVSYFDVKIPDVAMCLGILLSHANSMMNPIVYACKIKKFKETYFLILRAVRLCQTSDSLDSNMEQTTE

[9] = biological target: adrenergic receptor α2A (Homo sapiens, UniProt P08913); assay: Off-target interaction determined by the PDSP; type: binding; settings: read-out: Off-target, receptor (h, unless noted) (Ki, μM): α2A
Sequence of adrenergic receptor α2A (P08913 whole entry): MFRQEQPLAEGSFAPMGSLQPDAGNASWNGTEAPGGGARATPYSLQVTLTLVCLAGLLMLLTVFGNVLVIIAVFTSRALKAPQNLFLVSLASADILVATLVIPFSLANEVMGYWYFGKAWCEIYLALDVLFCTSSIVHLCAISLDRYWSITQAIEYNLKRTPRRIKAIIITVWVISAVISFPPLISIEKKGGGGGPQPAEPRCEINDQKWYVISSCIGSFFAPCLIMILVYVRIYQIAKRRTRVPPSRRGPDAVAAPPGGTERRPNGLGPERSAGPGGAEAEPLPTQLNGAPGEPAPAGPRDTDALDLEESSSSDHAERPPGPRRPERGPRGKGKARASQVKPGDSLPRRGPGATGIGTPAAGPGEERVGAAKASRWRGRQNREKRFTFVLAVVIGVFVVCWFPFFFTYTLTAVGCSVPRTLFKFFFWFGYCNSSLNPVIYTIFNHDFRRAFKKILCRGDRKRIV

[10] = biological target: TSPO (translocator protein) (UniProt P30536); assay: Off-target interaction determined by the PDSP; type: binding, human; settings: read-out: Off-target, receptor (h, unless noted) (Ki, μM): TSPO
[11] = biological target: serotonin receptor 5HT2B (Homo sapiens, UniProt P41595); assay: Off-target interaction determined by the PDSP; type: binding; settings: read-out: Off-target, receptor (h, unless noted) (Ki, μM): 5HT2B
Sequence of serotonin receptor 5HT2B (P41595 whole entry): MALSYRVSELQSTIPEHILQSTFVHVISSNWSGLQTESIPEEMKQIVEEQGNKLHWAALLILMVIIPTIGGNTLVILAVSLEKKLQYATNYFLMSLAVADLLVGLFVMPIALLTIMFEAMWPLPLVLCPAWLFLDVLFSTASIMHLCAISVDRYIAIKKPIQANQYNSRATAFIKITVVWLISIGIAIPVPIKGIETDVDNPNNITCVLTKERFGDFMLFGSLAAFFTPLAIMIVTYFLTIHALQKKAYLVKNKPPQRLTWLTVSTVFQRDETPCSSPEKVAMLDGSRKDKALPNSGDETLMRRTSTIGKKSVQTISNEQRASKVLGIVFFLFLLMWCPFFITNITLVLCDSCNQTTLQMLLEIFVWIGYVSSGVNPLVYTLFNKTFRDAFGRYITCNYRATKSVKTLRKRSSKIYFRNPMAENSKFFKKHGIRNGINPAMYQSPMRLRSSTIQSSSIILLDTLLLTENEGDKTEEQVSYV

[12] = biological target: T5, hA3AR (Homo sapiens, UniProt P0DMS8); assay: Radioligand binding in membranes of CHO cells expressing hA3AR; settings: read-out: A3AR % inhibition or Ki; for Ki: (h)
T5 construct: expressed in transfected cells; host or cells: CHO
T5 sequence (P0DMS8 1-318): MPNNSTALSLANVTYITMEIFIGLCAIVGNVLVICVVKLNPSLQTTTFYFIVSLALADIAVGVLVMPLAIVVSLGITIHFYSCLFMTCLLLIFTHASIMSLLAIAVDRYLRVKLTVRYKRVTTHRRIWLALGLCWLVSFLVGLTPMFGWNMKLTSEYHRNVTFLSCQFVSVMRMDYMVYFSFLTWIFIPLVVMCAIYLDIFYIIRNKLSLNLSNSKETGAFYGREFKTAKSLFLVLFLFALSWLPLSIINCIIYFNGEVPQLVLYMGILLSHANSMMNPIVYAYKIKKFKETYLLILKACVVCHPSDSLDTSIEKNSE

[13] = biological target: muscarinic receptor M3 (Homo sapiens, UniProt P20309); assay: Off-target interaction determined by the PDSP; type: binding; settings: read-out: Off-target, receptor (h, unless noted) (Ki, μM): M3
Sequence of muscarinic receptor M3 (P20309 whole entry): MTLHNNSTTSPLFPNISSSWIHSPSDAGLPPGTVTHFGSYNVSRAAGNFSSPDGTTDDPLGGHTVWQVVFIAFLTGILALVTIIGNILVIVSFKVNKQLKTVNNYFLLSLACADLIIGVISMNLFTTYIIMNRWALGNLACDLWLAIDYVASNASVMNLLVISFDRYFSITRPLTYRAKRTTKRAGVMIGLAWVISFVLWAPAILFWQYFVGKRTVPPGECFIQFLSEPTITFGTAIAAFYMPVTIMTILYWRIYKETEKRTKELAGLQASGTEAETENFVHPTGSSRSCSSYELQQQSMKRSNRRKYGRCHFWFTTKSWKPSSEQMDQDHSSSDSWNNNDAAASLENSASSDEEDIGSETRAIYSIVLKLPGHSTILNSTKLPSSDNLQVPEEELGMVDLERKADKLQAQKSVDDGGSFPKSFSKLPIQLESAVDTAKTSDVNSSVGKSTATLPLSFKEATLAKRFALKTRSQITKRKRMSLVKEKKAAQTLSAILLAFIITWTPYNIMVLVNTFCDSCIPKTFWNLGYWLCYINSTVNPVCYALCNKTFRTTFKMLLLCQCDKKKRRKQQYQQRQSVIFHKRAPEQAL

[14] = biological target: T6, serotonin receptor 5HT2C (Homo sapiens, UniProt P28335); assay: Off-target interaction determined by the PDSP; type: binding; settings: read-out: Off-target, receptor (h, unless noted) (Ki, μM): 5HT2C
T6 sequence (P28335 33-458): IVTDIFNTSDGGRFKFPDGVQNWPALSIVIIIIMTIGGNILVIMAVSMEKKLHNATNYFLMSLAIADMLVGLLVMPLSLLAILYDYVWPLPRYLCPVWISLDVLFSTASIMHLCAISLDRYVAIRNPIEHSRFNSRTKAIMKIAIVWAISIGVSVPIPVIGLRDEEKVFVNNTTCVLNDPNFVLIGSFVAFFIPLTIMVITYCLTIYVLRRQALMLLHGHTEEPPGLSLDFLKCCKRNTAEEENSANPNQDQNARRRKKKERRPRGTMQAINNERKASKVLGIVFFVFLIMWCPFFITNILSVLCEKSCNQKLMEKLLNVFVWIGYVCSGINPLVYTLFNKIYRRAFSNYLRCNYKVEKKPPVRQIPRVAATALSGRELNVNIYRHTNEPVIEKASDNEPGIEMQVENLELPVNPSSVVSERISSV

[15] = biological target: muscarinic receptor M5 (Homo sapiens, UniProt P08912); assay: Off-target interaction determined by the PDSP; type: binding; settings: read-out: Off-target, receptor (h, unless noted) (Ki, μM): M5
Sequence of muscarinic receptor M5 (P08912 whole entry): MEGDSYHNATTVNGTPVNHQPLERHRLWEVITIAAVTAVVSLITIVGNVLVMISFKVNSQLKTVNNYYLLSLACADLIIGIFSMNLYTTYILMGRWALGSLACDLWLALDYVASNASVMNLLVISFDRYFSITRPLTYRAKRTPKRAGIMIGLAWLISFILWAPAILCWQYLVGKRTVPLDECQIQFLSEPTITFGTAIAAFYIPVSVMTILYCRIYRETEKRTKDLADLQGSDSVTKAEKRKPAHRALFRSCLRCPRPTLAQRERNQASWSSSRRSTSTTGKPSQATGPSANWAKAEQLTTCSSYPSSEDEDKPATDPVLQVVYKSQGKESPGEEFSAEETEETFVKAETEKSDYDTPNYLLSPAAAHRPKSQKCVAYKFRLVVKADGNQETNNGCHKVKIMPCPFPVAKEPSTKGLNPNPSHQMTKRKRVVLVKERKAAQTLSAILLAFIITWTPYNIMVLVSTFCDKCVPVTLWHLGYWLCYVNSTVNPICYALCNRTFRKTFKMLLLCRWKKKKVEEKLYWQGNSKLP

[16] = biological target: dopamine transporter (DAT) (Homo sapiens, UniProt Q01959); assay: Off-target interaction determined by the PDSP; type: binding; settings: read-out: Off-target, receptor (h, unless noted) (Ki, μM): DAT
Sequence of dopamine transporter (DAT) (Q01959 whole entry): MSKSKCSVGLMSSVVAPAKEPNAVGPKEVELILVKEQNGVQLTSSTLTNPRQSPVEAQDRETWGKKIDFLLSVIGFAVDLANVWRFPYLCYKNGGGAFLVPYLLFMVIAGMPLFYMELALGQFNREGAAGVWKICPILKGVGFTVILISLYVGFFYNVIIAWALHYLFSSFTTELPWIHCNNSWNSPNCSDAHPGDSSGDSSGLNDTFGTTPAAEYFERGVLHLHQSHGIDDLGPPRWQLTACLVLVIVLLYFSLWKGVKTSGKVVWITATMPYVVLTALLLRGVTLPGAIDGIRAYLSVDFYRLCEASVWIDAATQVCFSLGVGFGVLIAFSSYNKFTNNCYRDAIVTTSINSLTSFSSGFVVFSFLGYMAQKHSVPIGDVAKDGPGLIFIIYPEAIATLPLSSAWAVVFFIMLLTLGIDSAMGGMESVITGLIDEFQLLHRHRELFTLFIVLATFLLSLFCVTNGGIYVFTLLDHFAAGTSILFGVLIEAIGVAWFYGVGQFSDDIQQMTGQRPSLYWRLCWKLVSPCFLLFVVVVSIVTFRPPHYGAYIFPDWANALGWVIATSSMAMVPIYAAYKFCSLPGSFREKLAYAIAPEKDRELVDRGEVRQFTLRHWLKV

[17] = biological target: mA2AAR (Mus musculus, UniProt Q60613); assay: Adenosine receptor binding, mA2AAR; settings: read-out: A2AAR % inhibition (converted)
Sequence of mA2AAR (Q60613 whole entry): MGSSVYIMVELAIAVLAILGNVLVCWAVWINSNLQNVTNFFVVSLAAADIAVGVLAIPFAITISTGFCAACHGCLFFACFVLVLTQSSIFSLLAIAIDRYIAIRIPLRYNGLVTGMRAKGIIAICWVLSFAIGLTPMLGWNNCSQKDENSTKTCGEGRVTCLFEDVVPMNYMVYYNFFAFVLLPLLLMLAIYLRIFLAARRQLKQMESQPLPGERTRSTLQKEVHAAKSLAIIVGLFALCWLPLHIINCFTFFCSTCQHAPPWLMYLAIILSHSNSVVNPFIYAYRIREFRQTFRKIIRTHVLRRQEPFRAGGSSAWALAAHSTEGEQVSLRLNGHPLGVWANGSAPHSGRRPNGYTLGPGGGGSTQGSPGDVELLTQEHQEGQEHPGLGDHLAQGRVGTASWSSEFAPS

[18] = biological target: T4, mA3AR; assay: Guanine nucleotide ([35S]GTPγS) binding assay; type: biochemical; settings: effect of 10 μM test compound as % of 10 μM 16
Protocol: (§2) cLogP was calculated using ChemDraw Professional, v. 16.0. Binding selectivity for mA1Ar is expressed in terms of fold, compared to mA3AR (Data from Table 1).

[19] = biological target: T1, mA1AR; assay: Guanine nucleotide ([35S]GTPγS) binding assay; type: biochemical
Protocol: as §2

[20] = Plasma protein binding at 10 μM; type: in vitro ADME, human; settings: unbound percent ± standard deviation
Protocol: (§3) Plasma protein binding in human plasma, mouse plasma, and rat plasma was determined. Verapamil and warfarin served as positive controls. The results are expressed as unbound percent±standard deviation.

[21] = Plasma protein binding at 10 μM; type: in vitro ADME, rat; settings: unbound percent ± standard deviation
Protocol: as §3

[22] = Plasma protein binding at 10 μM; type: in vitro ADME, mouse; settings: unbound percent ± standard deviation
Protocol: as §3

[23] = biological target: rat brain benzodiazepine receptors (BZP); assay: Off-target interaction determined by the PDSP; type: binding; settings: read-out: Off-target, receptor (h, unless noted) (Ki, μM): BZP (r)
[24] = biological target: histamine receptor H2 (Homo sapiens, UniProt P25021); assay: Off-target interaction determined by the PDSP; type: binding; settings: read-out: Off-target, receptor (h, unless noted) (Ki, μM): H2
Sequence of histamine receptor H2 (P25021 whole entry): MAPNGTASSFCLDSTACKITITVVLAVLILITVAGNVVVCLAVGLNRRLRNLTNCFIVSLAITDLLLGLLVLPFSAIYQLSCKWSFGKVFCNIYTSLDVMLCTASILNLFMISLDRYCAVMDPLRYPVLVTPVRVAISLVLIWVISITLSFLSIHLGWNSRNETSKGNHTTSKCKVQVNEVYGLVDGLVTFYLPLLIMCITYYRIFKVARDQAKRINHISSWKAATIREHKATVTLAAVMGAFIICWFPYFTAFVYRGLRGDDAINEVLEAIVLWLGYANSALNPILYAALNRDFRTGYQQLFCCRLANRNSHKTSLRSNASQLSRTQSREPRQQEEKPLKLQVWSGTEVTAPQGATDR

Sequence of sigma receptor σ1 (Q99720 whole entry): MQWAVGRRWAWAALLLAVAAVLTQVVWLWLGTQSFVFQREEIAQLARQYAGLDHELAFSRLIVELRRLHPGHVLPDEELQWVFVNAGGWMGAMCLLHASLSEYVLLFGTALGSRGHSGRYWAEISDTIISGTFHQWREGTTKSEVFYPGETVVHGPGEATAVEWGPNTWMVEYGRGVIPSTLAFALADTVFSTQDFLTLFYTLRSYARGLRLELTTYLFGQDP

SMILES	Ki [1]	Tb (° C.) ([2]; 3 mg/kg ip)	Ki [3]	Ki [4]	Ki [5]	inhibition at 10 µM [6]	Activity (counts) ([7]; 3 mg/kg ip)	Ki [8]	Ki [10]	Ki [11]	inhibition at 10 µM [12]	Ki [14]	Ki [12]	Tb (° C.) ([2]; 10 mg/kg ip)	Activity (counts) ([7]; 10 mg/kg ip)	inhibition at 10 µM [17]	further results
O[C@H]1[C@H](n2cnc3c(NC(C4CCC4)C4CCC4)ncnc32)[C@H]2C[C@@]2(CCl)[C@H]1O [Compound 26, (1S,2R,3S,4R,5S)-1-(Chloromethyl)-4-(6-((dicyclobutylmethyl)amino)-9H-purin-9-yl)bicyclo[3.1.0]hexane-2,3-diol]	1.5 µM	35.9 ± 0.5 °C	1.17 µM	1.05 nM	32.7 ± 12.4 nM	38 ± 3%	14.8 ± 1.7 counts	934 nM	2.02 µM	2.01 µM	49 ± 4%	–	–	–	–	–	Ki [9]: 6.8 µM
CCOC(=O)[C@@]12C[C@@H]1[C@@H](n1cnc3c(NC(C4CCC4)C4CCC4)nc(Cl)nc31)[C@H](O)[C@@H]2O [Compound 35, Ethyl (1S,2R,3S,4R,5S)-4-(2-Chloro-6-((dicyclobutylmethyl)amino)-9H-purin-9-yl)-2,3-dihydroxybicyclo[3.1.0]hexane-1-carboxylate]	–	–	2.02 µM	–	73.8 ± 14.2 nM	57 ± 12%	–	–	–	0.097 µM	–	0.089 µM	1160 ± 300 nM	–	–	–	Ki [13]: 5.9 µM
OC[C@@]12C[C@@H]1[C@@H](n1cnc3c(NC(C4CCC4)C4CCC4)nc(Cl)nc31)[C@H](O)[C@@H]2O [Compound 25, (1R,2R,3S,4R,5S)-4-(2-Chloro-6-((dicyclobutylmethyl)amino)-9H-purin-9-yl)-1-(hydroxymethyl)bicyclo[3.1.0]hexane-2,3-diol]	–	–	–	2.47 nM	8.96 ± 1.02 nM	55 ± 5%	–	612 nM	2.93 µM	–	25 ± 2%	0.238 µM	–	36.6 ± 0.2 °C	18.4 ± 3.2 counts	26%	Ki [15]: 3 µM; Ki [16]: 4.75 µM
OC[C@@]12C[C@@H]1[C@@H](n1cnc3c(NC(C4CCC4)C4CCC4)ncnc31)[C@H](O)[C@@H]2O [Compound 24, (1R,2R,3S,4R,5S)-4-(6-((Dicyclobutylmethyl)amino)-9H-purin-9-yl)-1-(hydroxymethyl)bicyclo[3.1.0]hexane-2,3-diol]	1.79 µM	36.2 ± 0.4 °C	0.753 µM	0.53 nM	22.7 ± 3 nM	34 ± 1%	18.1 ± 6.8 counts	918 nM	–	0.214 µM	51 ± 6%	1.32 µM	–	–	–	–	Emax at 10 µM [18]: 92 ± 3%; Emax at 10 µM [19]: 97 ± 11%; Binding selectivity for mA1AR ([4]; compared to mA3AR): (1730) fold; human, % free [20]: 14.6 ± 1.3%; rat, % free [21]: 17.8 ± 1.2%; mouse, % free [22]: 27.5 ± 1.7%; Ki [23]: 4.08 µM
O[C@H]1[C@H](n2cnc3c(NC(C4CCC4)C4CCC4)nc(Cl)nc32)[C@H]2C[C@@]2(CCl)[C@H]1O [Compound 27, (1S,2R,3S,4R,5S)-4-(2-Chloro-6-((dicyclobutylmethyl)amino)-9H-purin-9-yl)-1-(chloromethyl)bicyclo[3.1.0]hexane-2,3-diol]	–	–	0.349 µM	11.2 nM	120 ± 23 nM	17 ± 24%	–	–	2.89 µM	–	–	1.75 µM	3820 ± 1820 nM	36.5 ± 0.6 °C	18.9 ± 10.2 counts	20%	Ki [24]: 2.6 µM
